Counter-ions that a name gives are not always drawn.
Assays:
[1] = molecular target: T1, human farnesyl transferase (Homo sapiens, UniProt P49354+P49356); test: inhibition of farnesyl transferase (transfer of [3H]farnesyl from [3H]FPP to p21 H-Ras); type: biochemical; conditions: p21 H-Ras substrate, 20 minutes at 37° C.; 9 concentrations; read-out: Inhibitory activity IC50
T1 construct: human farnesyl transferase purified from THP1 cell cultures; endogenous in cells; host or cells: THP1 cells (enzyme purified from the cultures)
Experimental: Farnesyl transferase activity is determined by the quantity of [^3 H]farnesyl transferred from [^3 H]farnesyl pyrophosphate [[^3 H]FPP) to the p21 H-Ras protein. The standard reaction mixture is composed, for a final volume of 60 μl, of 50 mM Tris-HCl, 5 mM MgCl2, 5 mM dithiotreitol, 0.2% octyl β-D-glucopyranoside, 200 picomol p21 H-ras, 4.5 picomol [^3 H]FPP (activity 61000 dpm/picomol).
Reaction is initiated by adding approximately 5 ng of human farnesyl transferase purified from THP1 cell cultures. After incubation for 20 minutes at 37° C. in a microtitration plate containing 96 1-cm^3 wells per plate (Titer Plate®, Beckman), the reaction is stopped by adding 0.4 cm^3 of 0.1% SDS in methanol at 0° C. The mixture is then treated with 0.4 cm^3 of 30% trichloroacetic acid (TCA) in methanol. The plates are left in ice for 1 hour. […] The membranes are dried in a microwave oven, then impregnated with scintillation medium by melting of Meltilex® (Pharmacia) under hot air, and lastly counted in cpm in a β-Plate counter® (LKB). […]
The percentage inhibition values are obtained by comparison of the tests with and without inhibitor after deduction of blanks, the IC50 values being measured on the basis of the inhibitions obtained with 9 different concentrations using Enzfitter® or Grafit® software.

[2] = test system: farnesylation of the Ras protein in THAC line (CCL 39 cells transfected with activated Ha-Ras); test: activity against cells: inhibition of farnesylation of the Ras protein in THAC cells (Western blot); type: cell-based; conditions: CCL39, 24 hours at 37° C.
Experimental: The activity against cells can be determined in the following way:
The cell line is the THAC line (CCL 39 cells transfected with activated Ha-Ras) according to K. Seuwen et al., EMBO J., 7(1) 161-168 (1988). The cells are cultured in Petri dishes with a diameter of 6 cm containing a DMEM medium, 5% foetal calf serum and 1% G418.
After culturing for 24 hours, the culture medium is changed (with or without the serum).and the product to be studied is added in solution in dimethylformamide (DMF), in the presence or in the absence of DTT (final concentrations of 0.5% in DMF and 0.1 mM in DTT). After culturing for 24 hours at 37° C., the cells are lysed in 1 cm^3 of lysis buffer (20 mM Tris, HCl, 1% Triton X114, 5 mM MgCl2, 7 mM DTT, 150 mM NaCl, pH=7.4). The lysates are clarified by centrifuging at 4000 revolutions/minute for 10 minutes. […] The radioactivity of the bands corresponding to farnesylated Ras and to non-farnesylated Ras makes it possible to determine the percentage of inhibition of farnesylation of the Ras protein.

| IC50 [1] | SMILES | inhibition at 10 µM ([2]; 10 μM) | inhibition at 50 µM ([2]; 50 μM) |
| --- | --- | --- | --- |
| 15 nM | COC(=O)[C@H](CCSC)NC(=O)C1CCCc2c(NC[C@@H](N)CS)cccc21 (stereo partly drawn) [Example 1, trifluoroacetate of the methyl ester of N-[5-(2(R)-amino-3-mercapto-propylamino)-1,2,3,4-tetrahydronaphthyl-1(R,S)-carbonyl]-(L)-methionine] | > 10% |  |
| 405 nM | CSCC[C@H](NC(=O)C1CCCc2c(NC[C@@H](N)CS)cccc21)C(=O)O (stereo partly drawn) [Example 2, trifluoroacetate of N-[5-(2(R)-amino-3-mercaptopropylamino)-1,2,3,4-tetrahydronaphthyl-1(R,S)-carbonyl]-(L)-methionine] |  | 50% |
